# Test results as given in ChEMBL document CHEMBL3632547, “Discovery of 3,5-substituted 6-azaindazoles as potent pan-Pim inhibitors” (Bioorg Med Chem Lett, 2015).
# Legend:
# [1] = target: Serine/threonine-protein kinase pim-2 (Homo sapiens, UniProt Q9P1W9)
# [2] = target: Serine/threonine-protein kinase pim-3 (Homo sapiens, UniProt Q86V86)
# [3] = target: Serine/threonine-protein kinase pim-1 (Homo sapiens, UniProt P11309)
# [4] = Cytotoxicity against wild type interleukin-3 dependent mouse BA/F3 cells after 72 hrs by CellTiter-Glo assay; assay type: functional, cell-based; settings: BaF3, 72 h
# [5] = Cytotoxicity against interleukin-3 independent mouse BA/F3 cells expressing PIM1 after 72 hrs by CellTiter-Glo assay; assay type: functional, cell-based; settings: BaF3, 72 h
# BaF3 = experiment: Ratio of IC50 for wild type interleukin-3 dependent mouse BA/F3 cells to IC50 for interleukin-3 independent mouse BA/F3 cells expressing PIM1; assay type: functional
# [6] = Cytotoxicity against human MM1S cells after 72 hrs by CellTiter-Glo assay; assay type: functional, cell-based; settings: MM1.S
# [7] = Plasma clearance in rat; assay type: ADME, organism-based
# [8] = Oral bioavailability in rat; assay type: ADME, organism-based; settings: in vivo
# [9] = Plasma protein binding in rat; assay type: ADME, cell-free; settings: read-out: PPB (converted)
# [10] = Intrinsic clearance from rat liver microsomes; assay type: ADME; settings: read-out: CLH
# [11] = Apparent permeability from apical to basolateral side in MDCK cells; assay type: ADME, cell-based, Canis lupus familiaris; settings: dog
# [12] = Efflux ratio of apparent permeability from basolateral to apical over apical to basolateral side in MDCK cells; assay type: ADME, cell-based, Canis lupus familiaris; settings: dog
# Chain of Serine/threonine-protein kinase pim-2 (Q9P1W9 whole entry): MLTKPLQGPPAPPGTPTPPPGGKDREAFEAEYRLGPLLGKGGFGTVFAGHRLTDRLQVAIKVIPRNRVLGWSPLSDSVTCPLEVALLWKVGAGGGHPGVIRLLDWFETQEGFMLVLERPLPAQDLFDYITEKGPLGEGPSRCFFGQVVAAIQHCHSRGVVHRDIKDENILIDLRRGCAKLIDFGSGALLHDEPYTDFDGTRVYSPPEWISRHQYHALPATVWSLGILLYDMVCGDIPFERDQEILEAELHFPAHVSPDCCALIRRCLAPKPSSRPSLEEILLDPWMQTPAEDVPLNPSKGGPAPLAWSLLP
# Chain of Serine/threonine-protein kinase pim-1 (P11309 whole entry): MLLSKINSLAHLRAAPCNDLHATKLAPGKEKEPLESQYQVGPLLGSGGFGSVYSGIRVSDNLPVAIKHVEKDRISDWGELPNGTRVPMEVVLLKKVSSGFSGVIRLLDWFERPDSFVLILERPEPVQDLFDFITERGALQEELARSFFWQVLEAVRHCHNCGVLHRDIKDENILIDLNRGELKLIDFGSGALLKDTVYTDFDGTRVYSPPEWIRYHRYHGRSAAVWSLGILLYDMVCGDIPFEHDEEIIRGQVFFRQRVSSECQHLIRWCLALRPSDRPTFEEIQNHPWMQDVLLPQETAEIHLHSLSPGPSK
SMILES,Ki [1] [nM],Ki [2] [nM],Ki [3] [nM],further results
Cn1cc(-c2cc3c(-c4cccc(O[C@@H]5CCCNC5)n4)n[nH]c3cn2)cn1,6.2,0.16,,
Cn1cc(-c2cc3c(-c4cccc(N5CCC[C@@H](N)C5)n4)n[nH]c3cn2)cn1,0.72,0.021,,
Cn1cc(-c2cc3c(-c4cccc(N5CCC[C@H](N)C5)n4)n[nH]c3cn2)cn1,0.26,0.015,,
Cn1cc(-c2cc3c(-c4cccc(N5CCC[C@@H](N)C5)c4)n[nH]c3cn2)cn1,1.25,0.29,,
Cc1ccc(-c2n[nH]c3cnc(-c4cnn(C)c4)cc23)nc1N1CCC[C@H](N)C1,0.088,0.006,,
CCn1cc(-c2cc3c(-c4cccc(N5CCNCC5)n4)n[nH]c3cn2)cn1,0.473,0.041,,IC50 [4]: 5.4 µM; IC50 [5]: 77 nM; Ratio IC50 (BaF3): 70; IC50 [6]: 640 nM; clearance [7]: 14 mL/min/kg; bioavailability [8]: 1%; fraction unbound [9]: 0.022; CLint scaled [10]: 150 mL/min/kg; Papp A→B [11]: 0.5 ×10⁻⁶ cm/s; efflux ratio [12]: 51
c1cc(-c2n[nH]c3cnc(C4CCCO4)cc23)nc(N2CCNCC2)c1 (stereo unspecified),82,,8.5,
c1cc(-c2n[nH]c3cnc(C4CCCOC4)cc23)nc(N2CCNCC2)c1 (stereo unspecified),26,1,,
O=C1CN(c2cc3c(-c4cccc(N5CCNCC5)n4)n[nH]c3cn2)CCN1,17,1.4,,
c1cc(-c2n[nH]c3cnc(N4CCOCC4)cc23)nc(N2CCNCC2)c1,14,4.4,,
Cn1cc(-c2cc3c(-c4cccc(N5CCCNCC5)n4)n[nH]c3cn2)cn1,0.17,0.013,0.02,
Cn1cc(-c2cc3c(-c4cccc(C5CCNCC5)n4)n[nH]c3cn2)cn1,2.2,0.12,,
CCn1cncc(-c2cc3c(-c4cccc(N5CCNCC5)n4)n[nH]c3cn2)c1=O,0.145,0.07,,
N#CCn1cc(-c2cc3c(-c4cccc(N5CCNCC5)n4)n[nH]c3cn2)cn1,0.127,0.013,,
c1cc(-c2n[nH]c3cnc(-c4cnn(CC5CC5)c4)cc23)nc(N2CCNCC2)c1,0.253,0.016,,
c1cc(-c2n[nH]c3cnc(-n4ccnc4)cc23)nc(N2CCNCC2)c1,5.4,0.65,,
NC(=O)Cc1cc2c(-c3cccc(N4CCNCC4)n3)n[nH]c2cn1,1100,115,,
NC(=O)Nc1cc2c(-c3cccc(N4CCNCC4)n3)n[nH]c2cn1,1.1,0.68,,
CN1C(=O)CN(c2cc3c(-c4cccc(N5CCNCC5)n4)n[nH]c3cn2)C1=O,33,3.3,,
Fc1ccccc1-c1n[nH]c2cnc(-c3cnccc3O[C@@H]3CCCNC3)cc12,1.7,0.11,3.4,
NC1CCN(c2cncc(-c3cc4c(-c5ccccc5F)n[nH]c4cn3)n2)CC1,3,0.1,0.1,
NCCNc1cccc(-c2n[nH]c3cnc(-c4cccnc4)cc23)n1,3,0.2,0.3,
O=C(Nc1cn[nH]c1)c1cccnc1,15000,2900,3300,
N[C@H]1CCCN(c2ccncc2-c2cc3c(-c4ccccc4F)n[nH]c3cn2)C1,35,6,,

# The next lines start with results.
Ki [1] [nM],Ki [2] [nM],Ki [3] [nM],SMILES,further results
0.43,0.015,0.035,Cn1cc(-c2cc3c(-c4cccc(N5CC[C@@H](N)C5)n4)n[nH]c3cn2)cn1,
48,3.7,,Cn1cc(-c2cc3c(-c4ccccn4)n[nH]c3cn2)cn1,
0.58,0.017,,Cn1cc(-c2cc3c(-c4cccc(N5CCNCC5)n4)n[nH]c3cn2)cn1,
170,9,6,Cc1n[nH]c2cnc(-c3cncc(N4CCC(N)CC4)n3)cc12,
0.5,0.01,0.04,c1cncc(-c2cc3c(-c4cccc(N5CCNCC5)n4)n[nH]c3cn2)c1,
0.3,0.037,,Cc1cncc(-c2cc3c(-c4cccc(N5CCNCC5)n4)n[nH]c3cn2)c1,
0.049,0.01,,Cc1cncc(-c2cc3c(-c4cccc(N5CCNCC5)n4)n[nH]c3cn2)n1,
6000,1800,1300,c1cncc(-c2cc3cn[nH]c3cn2)c1,
800,300,200,Cc1n[nH]c2cnc(-c3cccnc3)cc12,
3900,1500,800,Cc1c[nH]c2cnc(-c3cccnc3)cc12,
900,400,,Cc1n[nH]c2cnc(-c3cn[nH]c3)cc12,
2700,3100,3200,Cc1n[nH]c2ccc(-c3cn[nH]c3)cc12,
50,5,10,c1ccc(-c2n[nH]c3cnc(-c4cccnc4)cc23)cc1,
70,,10,c1ccc(-c2n[nH]c3cnc(-c4cccnc4)cc23)nc1,
8300,5000,,Cc1n[nH]c2cnc(-c3cnccc3N3CCC[C@H](N)C3)cc12,
